For this assay, the system named is VASP phosphorylation in rat thrombocytes. The assay is described as follows: Western blot of VASP phosphorylation in rat thrombocytes. It counts as cell-based. As to conditions: 5 min incubation. On the procedure: Rat thrombocytes (0.7×10^9 cell/ml) were incubated for 5 min with 100 μM sodium nitroprusside (SNP), with 10 μM prostaglandin E1(PgE1) or without either of these additions. The extracts of these rat thrombocytes were analyzed by Western blotting. […] Similar results are also obtained using mouse thrombocytes.

Each structure is given as a SMILES string.

Consider `CCCCC[C@H](O)/C=C/[C@H]1[C@H](O)CC(=O)[C@@H]1CCCCCCC(=O)O` [PgE1, prostaglandin E1], for which the “Phosphorylation-dependent shift of VASP from 46 kDa to 50 kDa (serine 157 phosphorylation)” value is “also took place in rat thrombocytes” and the “Phosphorylation-dependent signal given by the 16C2 antibody (serine 239 phosphorylation)” value is given as “also took place in rat thrombocytes”.

These data come from patent US6649421B1, “Antibodies against phoshorylated VASP (vasodilator-stimulated phosphoprotein), hybridoma cells for their preparation, and their use” (Vasopharm Biotech GmbH, priority 1997, dated 2003).
